From the supplement of paper PMC10307832

What was measured:
Experiment in all cases: relative viability (nuclei count vs DMSO), 5 days (fraction); higher = more cells survive
[1] = compound: C1COCCN1C2=NC(=NC3=C2OC4=C3C=CC=N4)C5=CC(=CC=C5)NC(=O)C6=CN=C(C=C6)N + CCNC(=O)c1noc(-c2cc(C(C)C)c(O)cc2O)c1-c1ccc(CN2CCOCC2)cc1 [Luminespib] (partner 0.01 µM)
Procedure, shortened: (§1)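 Each reported value is a median over duplicate plates. It expresses relative viability: treated-well nuclei count divided by vehicle-well nuclei count. Lung cancer cell lines in 1536-well plates were dosed by pin tool a day after seeding, alone with one drug or with a fixed anchor-drug dose plus five library-drug doses (not always all listed) in √10 steps, and nuclei were counted after 5 days.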

[2] = compound: C1COCCN1C2=NC(=NC3=C2OC4=C3C=CC=N4)C5=CC(=CC=C5)NC(=O)C6=CN=C(C=C6)N + NC(=O)Nc1cc(-c2cccc(F)c2)sc1C(=O)N[C@H]1CCCNC1 [AZD7762] (partner 0.2 µM)
Procedure, shortened: as §1

[3] = compound: C1COCCN1C2=NC(=NC3=C2OC4=C3C=CC=N4)C5=CC(=CC=C5)NC(=O)C6=CN=C(C=C6)N + C[C@@H](Oc1cc(-c2cnn(C3CCNCC3)c2)cnc1N)c1c(Cl)ccc(F)c1Cl [Crizotinib] (partner 1 µM)
Procedure, shortened: as §1

SGI-1776 + Lapatinib = compound: CN1CCC(CNc2ccc3ncc(-c4cccc(OC(F)(F)F)c4)n3n2)CC1 [SGI-1776] + CS(=O)(=O)CCNCc1ccc(-c2ccc3ncnc(Nc4ccc(OCc5cccc(F)c5)c(Cl)c4)c3c2)o1 [Lapatinib] (partner 2 µM)
Procedure, shortened: as §1

Cell Line	relative viability ([1]; first compound 0.02 µM)	relative viability ([1]; first compound 0.06325 µM)	relative viability ([1]; first compound 0.2 µM)	relative viability ([1]; first compound 0.6325 µM)	relative viability ([1]; first compound 2 µM)	relative viability ([2]; first compound 0.02 µM)	relative viability ([2]; first compound 0.06325 µM)	relative viability ([2]; first compound 0.2 µM)	relative viability ([2]; first compound 0.6325 µM)	relative viability ([2]; first compound 2 µM)	relative viability ([3]; first compound 0.02 µM)	relative viability ([3]; first compound 0.06325 µM)	relative viability ([3]; first compound 0.2 µM)	relative viability ([3]; first compound 0.6325 µM)	relative viability ([3]; first compound 2 µM)	relative viability (SGI-1776 + Lapatinib; first compound 0.08 µM)	relative viability (SGI-1776 + Lapatinib; first compound 0.8 µM)	relative viability (SGI-1776 + Lapatinib; first compound 2.53 µM)	relative viability (SGI-1776 + Lapatinib; first compound 8 µM)
NCI-H522	0.993	1.23	1.13	0.986	0.719	0.708	0.867	0.773	0.834	0.684	–	–	–	–	–	–	–	–	–
LOU-NH91	0.309	0.389	0.346	0.315	0.306	0.733	0.793	0.734	0.748	0.59	0.729	0.755	0.76	0.74	0.664	0.818	0.824	0.75	0.588
NCI-H1395	0.666	0.555	0.789	0.658	0.482	0.387	0.348	0.374	0.371	0.372	–	–	–	–	–	1.16	1.04	1.07	0.781
NCI-H2023	0.793	0.38	0.477	0.507	0.245	–	–	–	–	–	0.669	0.711	0.49	0.56	0.257	0.918	1.21	1.04	0.219
Calu-6	–	–	–	–	–	–	–	–	–	–	1.1	0.876	0.758	0.822	0.454	1.12	1.11	1.01	0.771
NCI-H2342	0.746	0.768	0.719	0.665	0.596	0.498	0.525	0.476	0.565	0.463	–	–	–	–	–	–	–	–	–
COR-L23	0.761	0.99	0.89	0.667	0.467	–	–	–	–	–	0.68	0.748	0.716	0.809	0.43	1.1	0.9	0.914	0.922
ChaGo-K-1	0.635	0.582	0.513	0.526	0.518	0.892	0.93	0.84	0.886	0.635	1.2	1.14	1.01	1.26	0.717	–	–	–	–
NCI-H1563	0.492	0.516	0.542	0.474	0.48	–	–	–	–	–	0.778	0.833	0.729	0.762	0.728	0.869	0.939	1.02	0.825
IA-LM	–	–	–	–	–	–	–	–	–	–	1.05	0.733	0.619	0.58	0.369	0.923	0.726	–	0.72
NCI-H1299	–	–	–	–	–	–	–	–	–	–	0.942	0.95	0.937	0.958	0.669	1.02	0.991	0.99	0.95
NCI-H2009	1.07	1.07	0.999	1.01	0.725	–	–	–	–	–	0.984	1.11	0.927	1.07	0.72	0.985	0.897	1	0.766
NCI-H1623	0.486	0.503	0.461	0.439	0.835	–	–	–	–	–	–	–	–	–	–	–	–	–	–
NCI-H661	0.894	0.961	0.962	0.958	0.52	–	–	–	–	–	1.16	1.27	0.971	1.12	0.932	0.509	0.533	0.646	0.439
SK-LU-1	0.202	0.206	0.218	0.214	0.181	–	–	–	–	–	0.947	0.992	0.915	1.1	0.502	0.861	1.03	0.782	0.667
HCC-366	–	–	–	–	–	0.329	0.419	0.213	0.216	0.174	0.594	0.808	0.575	0.629	0.327	1.12	0.95	0.992	0.837
SW 1573	0.152	0.232	0.118	0.176	0.3	–	–	–	–	–	0.89	0.812	0.721	0.743	0.659	1.29	1.09	1.15	1.06
SW 900	0.203	0.166	0.172	0.152	0.174	0.63	0.606	0.505	0.522	0.429	–	–	–	–	–	–	–	–	–
NCI-H441	0.284	0.314	0.324	0.501	0.25	0.96	1.17	1.1	1.09	0.738	0.71	0.679	0.688	0.923	0.415	–	–	–	–
NCI-H1648	–	–	–	–	–	0.619	0.747	0.641	0.698	0.539	–	–	–	–	–	–	–	–	–
SK-MES-1	0.736	0.907	0.816	0.657	0.494	–	–	–	–	–	1.09	1.11	0.975	0.884	0.7	0.494	0.447	0.449	0.404
NCI-H1793	0.16	0.192	0.168	0.165	0.158	0.723	0.457	0.357	0.298	0.279	–	–	–	–	–	0.701	0.749	0.668	0.974
A549	–	–	–	–	–	–	–	–	–	–	1	0.903	0.66	0.764	0.302	0.965	0.993	0.958	0.652
NCI-H520	0.224	0.21	0.244	0.233	0.201	–	–	–	–	–	0.925	0.775	0.803	0.756	0.443	1.05	0.91	0.756	0.628
NCI-H2228	0.143	0.194	0.209	0.115	0.111	–	–	–	–	–	0.489	0.536	0.364	0.397	0.291	0.816	1.21	0.927	0.415
